The record followed here is patent US10881653B2, “Tricyclic compounds and their use in the treatment of cancer” (The United States of America, as represented by the …, priority 2015, dated 2021).

The target in experiment [1] is T1, gluthathione reductase (GR) (Homo sapiens, UniProt P00390).
T1 sequence (P00390 44-522): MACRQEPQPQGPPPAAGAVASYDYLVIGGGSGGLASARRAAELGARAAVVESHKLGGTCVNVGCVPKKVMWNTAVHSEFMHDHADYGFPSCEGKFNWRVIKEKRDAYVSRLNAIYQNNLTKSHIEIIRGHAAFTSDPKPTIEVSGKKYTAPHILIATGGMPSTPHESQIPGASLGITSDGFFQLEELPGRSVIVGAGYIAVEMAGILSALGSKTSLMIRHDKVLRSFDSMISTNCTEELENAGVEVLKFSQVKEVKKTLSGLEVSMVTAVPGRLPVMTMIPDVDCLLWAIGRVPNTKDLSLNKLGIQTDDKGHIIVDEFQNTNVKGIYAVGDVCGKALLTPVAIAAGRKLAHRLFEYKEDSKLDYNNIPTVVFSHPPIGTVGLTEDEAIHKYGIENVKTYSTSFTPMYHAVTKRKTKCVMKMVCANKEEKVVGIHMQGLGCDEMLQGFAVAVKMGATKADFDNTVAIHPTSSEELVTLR
Description: Inhibition of recombinant GR (GSSG assay). It counts as biochemical. As for the experimental part: (§1) Small molecule inhibition of recombinant thioredoxin reductase 1 (TrxR1) and gluthathione reductase (GR) was examined in 96-well plate format. 15 nM TrxR1 was incubated in the presence of 250 μM NADPH, 0.1 mg/ml BSA, and various concentrations of the compound of Example 1 (1% DMSO final) in 50 mM Tris (pH 7.5) and 2 mM EDTA buffer for 15 minutes. Following the incubation period, 2.5 mM DTNB was added to each well and the change in O.D. at 412 nm was followed. Percent activity was determined using DMSO vehicle and no TrxR1 (blank) controls. 2 nM GR was incubated in the presence of 250 μM NADPH, 0.1 mg/ml BSA, and various concentrations of compounds (1% DMSO final) in 50 mM Tris (pH 7.5) and 2 mM EDTA buffer for 15 minutes. Following the incubation period, 1 mM GSSG was added to each well and the change in O.D. at 340 nm was followed. Percent activity was determined using DMSO vehicle and no GR (blank) controls.

The target in experiment [2] is T2, recombinant thioredoxin reductase 1 (TrxR1) (Homo sapiens, UniProt Q16881).
T2 sequence (Q16881 1-649): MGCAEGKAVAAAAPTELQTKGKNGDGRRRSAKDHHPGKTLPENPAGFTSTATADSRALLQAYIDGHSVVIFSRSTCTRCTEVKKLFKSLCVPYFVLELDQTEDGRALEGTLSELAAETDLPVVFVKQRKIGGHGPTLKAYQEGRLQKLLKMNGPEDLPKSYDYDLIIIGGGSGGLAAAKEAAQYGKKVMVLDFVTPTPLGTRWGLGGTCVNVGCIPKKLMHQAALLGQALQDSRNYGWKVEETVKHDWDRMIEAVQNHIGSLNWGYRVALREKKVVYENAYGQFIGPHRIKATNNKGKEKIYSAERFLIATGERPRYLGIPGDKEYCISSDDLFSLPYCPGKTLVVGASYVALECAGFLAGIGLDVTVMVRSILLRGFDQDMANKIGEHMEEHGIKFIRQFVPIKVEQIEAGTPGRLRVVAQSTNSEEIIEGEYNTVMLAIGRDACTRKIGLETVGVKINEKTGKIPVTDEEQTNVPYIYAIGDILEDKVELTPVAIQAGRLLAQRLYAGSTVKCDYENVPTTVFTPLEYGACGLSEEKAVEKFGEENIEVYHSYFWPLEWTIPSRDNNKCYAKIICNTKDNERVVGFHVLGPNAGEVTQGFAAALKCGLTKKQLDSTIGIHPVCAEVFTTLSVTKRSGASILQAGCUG
Kind of experiment: Inhibition of recombinant TrxR1 (DTNB assay). It counts as biochemical. As to the method: as §1

Setting [3] is: Biological Example 1, 2 nM GR, 250 μM NADPH, 15 minutes incubation.
Where [4] appears, read: Biological Example 4, assays of Biological Example 1.
The mark [5] stands for this setting: Biological Example 1, 15 nM TrxR1, 250 μM NADPH, 15 minutes incubation, read-out: TrxR inhibition.
The mark [6] stands for this setting: Biological Example 4, assays of Biological Example 1, read-out: TrxR Inhibition.

Counter-ions that a name gives are not always drawn. Like-named read-outs stand apart in the source and are kept apart here.

As for `O=C1C=C[C@H]2[C@@H]3C(=O)N(c4ccccc4)C(=O)[C@@H]3[C@@H]1N2CCc1ccccc1` (relative stereo) [Example 7, exo-4-Phenyl-11-(2-phenylethyl)-4,11-diazatricyclo[5.3.1.0^2,6]undec-9-ene-3,5,8-trione Trifluoroacetate], the IC50 in experiment [1] (setting [3]) was > 100 µM; in experiment [1] (setting [4]) it was > 100 µM; in experiment [2] (setting [5]) it was 1.75 µM; in experiment [2] (setting [6]) it was 1.97 µM.
Take `O=C1C=C[C@H]2[C@@H]3C(=O)N(C4CCCCC4)C(=O)[C@@H]3[C@@H]1N2Cc1ccccc1` (relative stereo) [Example 9, exo-11-Benzyl-4-cyclohexyl-4,11-diazatricyclo[5.3.1.0^2,6]undec-9-ene-3,5,8-trione Trifluoroacetate]: the IC50 in experiment [1] (setting [3]) was > 100 µM; in experiment [1] (setting [4]), > 100 µM; in experiment [2] (setting [5]), 1.85 µM; in experiment [2] (setting [6]), 1.85 µM.
Consider `O=C1C=C[C@H]2[C@@H]3C(=O)N(Cc4ccccc4)C(=O)[C@@H]3[C@@H]1N2Cc1ccccc1` (relative stereo) [Example 11, exo-4,11-Dibenzyl-4,11-diazatricyclo[5.3.1.0^2,6]undec-9-ene-3,5,8-trione Trifluoroacetate], for which the IC50 in experiment [1] (setting [4]) is > 100 µM; in experiment [2] (setting [6]) it was 0.9 µM.
Consider `CC1=CC(=O)[C@@H]2[C@H]3C(=O)N(C4CCCCC4)C(=O)[C@H]3[C@H]1N2Cc1ccccc1` (relative stereo) [Example 14, exo-11-Benzyl-4-cyclohexyl-10-methyl-4,11-diazatricyclo[5.3.1.0^2,6]undec-9-ene-3,5,8-trione Trifluoroacetate], for which the results for the IC50 in experiment [1] (setting [4]) and in experiment [2] (setting [6]) were > 100 µM and 33.3 µM, respectively.
On to `CC(C)(C)N1C(=O)[C@@H]2[C@H](C1=O)[C@H]1C(=O)C=C[C@@H]2N1Cc1ccccc1` (relative stereo) [Example 17, exo-11-Benzyl-4-(tert-butyl)-4,11-diazatricyclo[5.3.1.0^2,6]undec-9-ene-3,5,8-trione Trifluoroacetate], for which the IC50 in experiment [1] (setting [4]) was > 100 µM; in experiment [2] (setting [6]), 1.64 µM.
In the case of `O=C1C=C[C@H]2[C@@H]3C(=O)N(c4ccccc4)C(=O)[C@@H]3[C@@H]1N2Cc1ccc(F)cc1Cl` (relative stereo) [Example 18, exo-11-(2-Chloro-4-fluorobenzyl)-4-phenyl-4,11-diazatricyclo[5.3.1.0^2,6]-undec-9-ene-3,5,8-trione Trifluoroacetate], the IC50 in experiment [1] (setting [3]) was 70.4 µM; in experiment [1] (setting [4]), 22 µM; in experiment [2] (setting [5]) it was 2.45 µM; in experiment [2] (setting [6]), 0.94 µM.
With `Cc1ccccc1CN1[C@@H]2C(=O)C=C[C@H]1[C@@H]1C(=O)N(c3ccccc3)C(=O)[C@@H]12` (relative stereo) [Example 19, exo-11-(2-Methylbenzyl)-4-phenyl-4,11-diazatricyclo[5.3.1.0^2,6]undec-9-ene-3,5,8-trione Trifluoroacetate], the values for the IC50 in experiment [1] (setting [4]) and in experiment [2] (setting [6]) were > 100 µM and 1.5 µM, respectively.
In the case of `Cc1cccc(CN2[C@@H]3C(=O)C=C[C@H]2[C@@H]2C(=O)N(c4ccccc4)C(=O)[C@@H]23)c1` (relative stereo) [Example 21, exo-11-(3-Methylbenzyl)-4-phenyl-4,11-diazatricyclo[5.3.1.0^2,6]undec-9-ene-3,5,8-trione Trifluoroacetate], the IC50 in experiment [1] (setting [3]) was > 100 µM; in experiment [1] (setting [4]), > 100 µM; in experiment [2] (setting [5]) it was 7.39 µM; in experiment [2] (setting [6]), 1.15 µM.
Take `COc1cccc(CN2[C@@H]3C(=O)C=C[C@H]2[C@@H]2C(=O)N(c4ccccc4)C(=O)[C@@H]23)c1` (relative stereo) [Example 22, exo-11-(3-Methoxybenzyl)-4-phenyl-4,11-diazatricyclo[5.3.1.0^2,6]undec-9-ene-3,5,8-trione Trifluoroacetate]: the IC50 was > 100 µM in experiment [1] (setting [3]), 75.2 µM in experiment [1] (setting [4]), 1.97 µM in experiment [2] (setting [5]) and 1.24 µM in experiment [2] (setting [6]).
Consider `CS(=O)(=O)c1ccc(CN2[C@@H]3C(=O)C=C[C@H]2[C@@H]2C(=O)N(c4ccccc4)C(=O)[C@@H]23)cc1` (relative stereo) [Example 23, exo-11-(4-(Methylsulfonyl)benzyl)-4-phenyl-4,11-diazatricyclo[5.3.1.0^2,6]-undec-9-ene-3,5,8-trione Trifluoroacetate], for which the IC50 in experiment [1] (setting [4]) is > 100 µM; in experiment [2] (setting [6]) it was 3.83 µM.
`O=C1C=C[C@H]2[C@@H]3C(=O)N(c4ccccc4)C(=O)[C@@H]3[C@@H]1N2Cc1ccccc1Cl` (relative stereo) [Example 24, exo-11-(2-Chlorobenzyl)-4-phenyl-4,11-diazatricyclo[5.3.1.0^2,6]undec-9-ene-3,5,8-trione Trifluoroacetate]: the IC50 was > 100 µM in experiment [1] (setting [4]) and 1.3 µM in experiment [2] (setting [6]).
Turning to `O=C1C=C[C@H]2[C@@H]3C(=O)N(c4ccccc4)C(=O)[C@@H]3[C@@H]1N2CC1CC1` (relative stereo) [Example 25, exo-11-(Cyclopropylmethyl)-4-phenyl-4,11-diazatricyclo[5.3.1.0^2,6]undec-9-ene-3,5,8-trione Trifluoroacetate], the figures for the IC50 in experiment [1] (setting [4]) and in experiment [2] (setting [6]) were > 100 µM and 7.06 µM, respectively.
For `O=C1C=C[C@H]2[C@@H]3C(=O)N(c4ccccc4)C(=O)[C@@H]3[C@@H]1N2Cc1cc(F)ccc1F` (relative stereo) [Example 27, exo-11-(2,5-Difluorobenzyl)-4-phenyl-4,11-diazatricyclo[5.3.1.0^2,6]undec-9-ene-3,5,8-trione Trifluoroacetate], the IC50 was > 100 µM in experiment [1] (setting [4]) and 1.34 µM in experiment [2] (setting [6]).
Turning to `O=C1C=C[C@H]2[C@@H]3C(=O)N(c4ccccc4)C(=O)[C@@H]3[C@@H]1N2Cc1cccc(F)c1` (relative stereo) [Example 29, exo-11-(3-Fluorobenzyl)-4-phenyl-4,11-diazatricyclo[5.3.1.0^2,6]undec-9-ene-3,5,8-trione Trifluoroacetate], the IC50 in experiment [1] (setting [4]) is > 100 µM; in experiment [2] (setting [6]) it was 1.07 µM.
Take `COC(=O)c1cccc(CN2[C@@H]3C(=O)C=C[C@H]2[C@H]2C(=O)N(c4ccccc4)C(=O)[C@H]23)c1` (relative stereo) [Example 45, endo-Methyl 3-((3,5,10-trioxo-4-phenyl-4,11-diazatricyclo[5.3.1.0^2,6]undec-8-en-11-yl)methyl)benzoate]: the results for the IC50 in experiment [1] (setting [4]) and in experiment [2] (setting [6]) were > 100 µM and 1.4 µM, respectively.
For `CCN1C(=O)C2C(C1=O)[C@@H]1C=CC(=O)[C@H]2N1Cc1ccccc1` (relative stereo) [Example 46, endo-11-Benzyl-4-ethyl-4,11-diazatricyclo[5.3.1.0^2,6]undec-9-ene-3,5,8-trione Trifluoroacetate] the same measures were > 100 µM and 5.1 µM.
Take `CCN1C(=O)[C@@H]2[C@H](C1=O)[C@H]1C(=O)C=C[C@@H]2N1Cc1ccccc1` (relative stereo) [Example 47, exo-11-Benzyl-4-ethyl-4,11-diazatricyclo[5.3.1.0^2,6]undec-9-ene-3,5,8-trione Trifluoroacetate]: the IC50 in experiment [1] (setting [4]) is > 100 µM; in experiment [2] (setting [6]), 4.15 µM.
For `CCN1C(=O)[C@@H]2[C@H](C1=O)[C@H]1C(=O)C=C[C@@H]2N1Cc1cccc(C)c1` (relative stereo) [Example 49, exo-4-Ethyl-11-(3-methylbenzyl)-4,11-diazatricyclo[5.3.1.0^2,6]undec-9-ene-3,5,8-trione Trifluoroacetate], the IC50 in experiment [1] (setting [4]) is > 100 µM; in experiment [2] (setting [6]) it was 2.53 µM.
